Source: ChEMBL document CHEMBL3217509, “Discovery of an HIV integrase inhibitor with an excellent resistance profile” (Medchemcomm, 2013)

Assays:
[1] = Inhibition of DNA polymerase beta (unknown origin); parameters: species or system Homo sapiens
[2] = Inhibition of DNA polymerase gamma (unknown origin); parameters: species or system Homo sapiens
[3] = Inhibition of DNA polymerase alpha (unknown origin); parameters: species or system Homo sapiens
[4] = Intrinsic clearance in human hepatocytes assessed assessed per million of cells by LC-MS/MS analysis; format: ADME, cell-based, Hepatocyte; conditions: read-out: CLH
[5] = Intrinsic clearance in human liver microsomes assessed per mg of protein by LC-MS/MS analysis in presence of UDPGA; format: ADME; conditions: read-out: CLH
[6] = tested on: Human immunodeficiency virus 1; assay: Antiviral activity against HIV1 NL4-3 infected in human MT2 cells after 3 days by human JC53BL cell-based beta-galactosidase reporter gene assay; format: functional, organism-based; conditions: Human immunodeficiency virus 1, NL4-3, JC53BL, 72 h
[7] = Intrinsic clearance in human liver microsomes assessed per mg of protein by LC-MS/MS analysis; format: ADME; conditions: read-out: CLH

Row | IC50 [1] | IC50 [2] | IC50 [3] | hepatocyte CLint [4] | microsomal CLint [5] | IC50 [6] | microsomal CLint [7] | Structure (SMILES)
1 | 1960 nM | 3.7 µM | 7.17 µM |  |  |  |  | Cc1cn([C@H]2C[C@H](N=[N+]=[N-])[C@@H](COP(=O)(O)OP(=O)(O)OP(=O)(O)O)O2)c(=O)[nH]c1=O [ZIDOVUDINE TRIPHOSPHATE]
2 |  |  |  | 14.1 µL/min/1e6 cells | 80.2 µL/min/mg | 451 nM | 21.3 µL/min/mg | Cc1nc2c(ncc3c2ccn3Cc2ccc(F)cc2)c(=O)n1O
3 |  |  |  | 29.6 µL/min/1e6 cells | 24 µL/min/mg |  | 19.2 µL/min/mg | O=C1c2ncc3c(ccn3Cc3ccc(F)cc3)c2CCN1O
4 | > 50000 nM | ≤ 50 µM | > 50 µM |  |  |  |  | O=C1Nc2ccc(Cl)cc2[C@@](C#CC2CC2)(C(F)(F)F)O1 [EFAVIRENZ]
5 |  |  |  | 17 µL/min/1e6 cells | 5.8 µL/min/mg | 5 nM | 15.4 µL/min/mg | O=C1c2ncc3c(ccn3Cc3ccc(F)cc3OC(F)F)c2CCN1O
6 |  |  |  | 28.8 µL/min/1e6 cells | 4.8 µL/min/mg | > 7480 nM | < 8 µL/min/mg | COc1cc(F)ccc1Cn1ccc2c3c(ncc21)C(=O)N(O)C3(C)C
7 | 1960 nM |  | 7.17 µM |  |  |  |  | Cc1cn([C@H]2CC[C@@H](COP(=O)(O)OP(=O)(O)OP(=O)(O)O)O2)c(=O)[nH]c1=O
